Counter-ions that a name gives are not always drawn.
How the values were obtained:
[1] = test system: control (Neo) cells; experiment: Oxygen consumption rate (OCR) assay, control (Neo) HEK293 cells; type: cell-based; settings: Homo sapiens; control (Neo) HEK293 cells; MitoXpress Xtra, 2 hours; read-out: Oxygen Consumption Rate (OCR) IC50, Neo
Excerpt: Diabetologia 2011, 54 (12): 3101-3110, each incorporated by reference with regard to such testing. The compounds of the present invention are similarly tested in an oxygen consumption rate (OCR) assay to evaluate the functional activity of test compounds in cells.
(§1) In brief, the assay uses HEK293 cells stably transfected with the human OCT1, OCT2, OCT3, PMAT, or MATE1 transporters to determine a compound's relative transporter selectivity and its effect on the rate of oxygen consumption relative to control (Neo) cells. The MitoXpress Xtra oxygen-sensitive fluorophore is used to monitor oxygen consumption rates in the presence and absence of compound treatments. The analogs were tested at eight (8) different concentrations in triplicate to determine a relative IC50 value.
(§2) A summary description of the protocol is as follows:
(§3) HEK293 cells transformed with human organic cation transporters were plated in collagen coated, 96-well black-walled microclear plates (Greiner-Bio 1, #655956) at 60,000 cells per well in growth medium (DMEM (LG), 10% FBS, 400 μg/ml G418). Cells were incubated overnight to allow attachment. The outer columns (1 and 12) are not seeded with cells, as controls. The next day, plating medium was removed and replaced with 150 μL of assay medium (DMEM/F12 (PRF), 5% FBS, antibiotics) containing compound dilutions. A 3-fold serial dilution was prepared in the assay medium and transferred to the empty wells. The outer columns and column 11 received 150 μL of assay medium only. 10 μL of MitoXpress Xtra reagent was added to each test well, and 100 μL of pre-warmed mineral oil was overlayed in each well to create a seal. Dual read time-resolved fluorescence (BMG FluoStar Galaxy reader) was measured over 2 hours with measurements taken every 2 minutes. Excitation is 340 nm, Emission is 650 nm. For lifetime analysis, two measurements per well were taken: 1) delay of 30 μs, with a window of 30 μs; and 2) delay of 70 μs with a window of 30 μs. Background TRF values from A1-D1 were subtracted from all readings. A ratiometric analysis was performed to determine changes in the Lifetime fluorescence signal:Lifetime (μs) [T]=(D2−D1)/ln(W1/W2), where D is delay; W is fluorescence window value at each time point. Lifetime slopes were calculated using each Lifetime measurement over time. IC50 values were determined by plotting lifetime slope values vs. compound concentration.

[2] = target: T1, human MATE1 (Homo sapiens, UniProt Q96FL8); experiment: Oxygen consumption rate (OCR) assay, HEK293 cells transfected with MATE1; settings: for inhibition at 1000 µM: HEK293, read-out: Oxygen Consumption Rate (OCR), MATE 1, % Inhibition at 1000 μM test concentration
T1 sequence (Q96FL8 1-570): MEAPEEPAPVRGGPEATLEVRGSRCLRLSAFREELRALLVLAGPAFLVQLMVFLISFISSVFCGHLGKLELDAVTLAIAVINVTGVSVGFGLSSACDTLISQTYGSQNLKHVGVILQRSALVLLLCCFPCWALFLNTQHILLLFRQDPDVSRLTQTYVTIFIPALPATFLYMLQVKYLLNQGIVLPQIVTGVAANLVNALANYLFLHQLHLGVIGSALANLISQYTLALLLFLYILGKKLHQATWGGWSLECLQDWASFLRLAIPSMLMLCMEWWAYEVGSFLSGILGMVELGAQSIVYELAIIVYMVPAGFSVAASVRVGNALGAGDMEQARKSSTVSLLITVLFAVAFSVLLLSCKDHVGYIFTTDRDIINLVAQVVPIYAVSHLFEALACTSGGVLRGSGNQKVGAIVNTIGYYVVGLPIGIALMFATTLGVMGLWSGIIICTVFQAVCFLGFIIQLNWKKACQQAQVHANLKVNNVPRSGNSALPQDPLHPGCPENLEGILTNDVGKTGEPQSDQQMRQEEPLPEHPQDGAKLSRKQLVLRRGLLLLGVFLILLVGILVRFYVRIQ
Excerpt: The compounds of the present invention are similarly tested in an oxygen consumption rate (OCR) assay to evaluate the functional activity of test compounds in cells.
as §1, §2
as §3, with “Cells” for “HEK293 cells transformed with human organic cation transporters were plated in collagen coated, 96-well black-walled microclear plates (Greiner-Bio 1, #655956) at 60,000 cells per well in growth medium (DMEM (LG), 10% FBS, 400 μg/ml G418). Cells”

SMILES	IC50 [1] [µM]	inhibition at 1000 µM [2] [%]	IC50 [2] [µM]
CCOc1ccc2[nH]cc(CCNC(=N)NC(=N)N)c2c1 [Ex 12, 1-[2-(5-ethoxy-1H-indol-3-yl)ethyl]imidodicarbonimide diamide trifluoroacetic acid salt]	1150	-8	
N=C(N)NC(=N)NCCc1cn(CCO)c2ccccc12 [Ex 13, 1-[2-(1-(2-hydroxyethyl)-1H-indol-3-yl)ethyl]imidodicarbonimide diamide trifluoroacetic acid salt]	2520	22	
COc1cccc2[nH]cc(CCNC(=N)NC(=N)N)c12 [Ex 14, 1-[2-(4-methoxy-1H-indol-3-yl)ethyl]imidodicarbonimide diamide trifluoroacetic acid salt]	1310	39	
N=C(N)NC(=N)NCCc1c[nH]c2ccc(OCCO)cc12 [Ex 15, 1-(2-(5-(2-hydroxyethoxy)-1H-indol-3-yl)ethyl)imidodicarbonimide diamide trifluoroacetic acid salt]	> 10000	-17	
COc1ccc2[nH]c(C)c(CCNC(=N)NC(=N)N)c2c1 [Ex 19, 1-[2-(5-methoxy-2-methyl-1H-indol-3-yl)ethyl]imidodicarbonimide diamide, trifluoroacetic acid salt]	> 3000	14	
N=C(N)NC(=N)NCCc1c[nH]c2ncccc12 [Ex 20, 1-(2-(1H-pyrrolo[2,3-b]pyridin-3-yl)ethyl)imidodicarbonimide diamide hydrochloride]	605		
CN(C)C(=N)NC(=N)NCCc1c[nH]c2ccc(F)cc12 [Ex 24, 3-(2-(5-fluoro-1H-indol-3-yl)ethyl)-1,1-dimethyl imidodicarbonimide diamide hydrochloride]	1590		> 10000
N=C(N)NC(=N)NCCc1c[nH]c2ccc(C(F)(F)F)cc12 [Ex 25, 1-[2-(5-trifluoromethyl-1H-indol-3-yl)ethyl]imidodicarbonimide diamide, trifluoroacetic acid salt]	51	44	
N=C(N)NC(=N)NCCc1c[nH]c2c(F)cc(F)cc12 [Ex 27, 1-[2-(5,7-difluoro-1H-indol-3-yl)ethyl]imidodicarbonimide diamide, trifluoroacetic acid salt]	291		
N=C(N)NC(=N)NCCc1c[nH]c2cc(F)c(F)cc12 [Ex 28, 1-[2-(5,6-difluoro-1H-indol-3-yl)ethyl]imidodicarbonimide diamide, trifluoroacetic acid salt]	604		
Cc1[nH]c2ccc(F)cc2c1CCNC(=N)NC(=N)N [Ex 29, 1-[2-(5-fluoro-2-methyl-1H-indol-3-yl)ethyl]imidodicarbonimide diamide, trifluoroacetic acid salt]	> 100		
CN(C)C(=N)NC(=N)NCCc1c[nH]c2ncccc12 [Ex 30, 1-(2-(1H-pyrrolo[2,3-b]pyridin-3-yl)ethyl)-1,1-dimethyl imidodicarbonimide diamide trifluoroacetic acid salt]	864		
CN(C)C(=N)NC(=N)NCCc1c[nH]c2ccc(OC(F)(F)F)cc12 [Ex 33, 3-(2-(5-trifluoromethoxy-1H-indol-3-yl)ethyl)-1,1-dimethyl imidodicarbonimide diamide hydrochloride]	156		218
Cc1cc2c(CCNC(=N)NC(=N)N)c[nH]c2cc1F [Ex 37, 1-[2-(6-fluoro-5-methyl-1H-indol-3-yl)ethyl]imidodicarbonimide diamide, trifluoroacetic acid salt]	326		70
N=C(N)NC(=N)NCCc1c[nH]c2c(Cl)cc(F)cc12 [Ex 38, 1-[2-(7-chloro-5-fluoro-1H-indol-3-yl)ethyl]imidodicarbonimide diamide, trifluoroacetic acid salt]	8760		2050
Cn1cc(CCNC(=N)NC(=N)N)c2cccnc21 [Ex 39, 1-(2-(1-methyl-1H-pyrrolo[2,3-b]pyridin-3-yl)ethyl)imidodicarbonimide diamide, trifluoroacetic acid salt]	205		168

— US12371404B2, “Fused bicyclic alkylene linked imidodicarbonimidic diamides, methods for synthesis, and uses in therapy” (NovaTarg, Inc., priority 2016, dated 2025)
